US8247211B2, “Glycopeptide antibiotics” (American Cyanamid Company, priority 2001, dated 2012)
≈ marks a conversion by molar mass, not a printed value. Values belong to the compound of their own block, whether it stands above or below them.

How the values were obtained:
Experiment in all cases: In vitro antibacterial evaluation: minimum inhibitory concentration (MIC), broth dilution method
Format in all cases: cell-based
Settings in all cases: 18 hours at 35° C.
Escherichia coli = system: Escherichia coli
Procedure, shortened: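 Test strains, among them recent clinical isolates carrying methicillin, penicillin and/or vancomycin resistance, were inoculated at 5×10^5 CFU/mL. A broth dilution series spanning 64-0.06 μg/mL in Muller-Hinton II […] (NCCLS M7-A2) defined the MIC as the lowest growth-inhibiting concentration.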

Enterococcus sp. = system: Enterococcus sp.
Procedure, shortened: (§1)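 NCCLS M7-A2 broth dilution; Muller-Hinton II […]; 5×10^5 CFU/mL; 64-0.06 μg/mL. MIC = lowest concentration with no growth.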

Staphylococcus sp. = system: Staphylococcus sp.
Procedure, shortened: as §1

Streptococcus sp. = system: Streptococcus sp.
Procedure, shortened: as §1

[1] = Enterococcus faecalis (GC 2242)
[2] = Enterococcus faecalis (GC 2691)
[3] = Enterococcus faecalis (GC 3059)
[4] = broth dilution, inoculum 5×10^5 CFU/mL
[5] = Streptococcus agalactiae (GC 4564)
[6] = Streptococcus pneumoniae (ATCC 6301)
[7] = Streptococcus pneumoniae (GC 1894)
[8] = Streptococcus pneumoniae (GC 4565)
[9] = Streptococcus pyogenes (GC 4563)

MIC Escherichia coli (ATCC 25922) (Escherichia coli): 64 µg/mL (≈ 45.7 µM)
MIC Escherichia coli (GC 4559) (Escherichia coli): 64 µg/mL (≈ 45.7 µM)
MIC Escherichia coli (GC 4560) (Escherichia coli): 1 µg/mL (≈ 0.715 µM)
MIC Enterococcus avium (GC 4558) (Enterococcus sp.): 8 µg/mL (≈ 5.72 µM)
MIC Enterococcus faecalis (ATCC 29212) (Enterococcus sp.): 8 µg/mL (≈ 5.72 µM)
MIC Enterococcus faecalis (GC 2242) (Enterococcus sp.; [1]): 4 µg/mL (≈ 2.86 µM)
MIC Enterococcus faecalis (GC 2691) (Enterococcus sp.; [2]): 8 µg/mL (≈ 5.72 µM)
MIC Enterococcus faecalis (GC 3059) (Enterococcus sp.; [3]): 8 µg/mL (≈ 5.72 µM)
MIC Enterococcus faecalis (GC 4552) (Enterococcus sp.): 8 µg/mL (≈ 5.72 µM)
MIC Enterococcus faecalis (GC 4553) (Enterococcus sp.): 8 µg/mL (≈ 5.72 µM)
MIC Enterococcus faecalis (GC 4554) (Enterococcus sp.): 8 µg/mL (≈ 5.72 µM)
MIC Enterococcus faecalis (GC 6189) (Enterococcus sp.): 8 µg/mL (≈ 5.72 µM)
MIC Enterococcus faecium (GC 2243) (Enterococcus sp.): 8 µg/mL (≈ 5.72 µM)
MIC Enterococcus faecium (GC 4556) (Enterococcus sp.): 8 µg/mL (≈ 5.72 µM)
MIC Enterococcus faecium (GC 4557) (Enterococcus sp.): 2 µg/mL (≈ 1.43 µM)
MIC Enterococcus faecalis (GC 2242) (Enterococcus sp.; [4]): 4 µg/mL (≈ 2.86 µM)
MIC Enterococcus faecalis (GC 2691) (Enterococcus sp.; [4]): 8 µg/mL (≈ 5.72 µM)
MIC Enterococcus faecalis (GC 3059) (Enterococcus sp.; [4]): 8 µg/mL (≈ 5.72 µM)
MIC Coagulase Negative Staphylococcus (GC 4547) (Staphylococcus sp.): 1 µg/mL (≈ 0.715 µM)
MIC Coagulase Negative Staphylococcus (GC 4548) (Staphylococcus sp.): 1 µg/mL (≈ 0.715 µM)
MIC Coagulase Negative Staphylococcus (GC 4549) (Staphylococcus sp.): 0.5 µg/mL (≈ 0.357 µM)
MIC Coagulase Negative Staphylococcus (GC 4551) (Staphylococcus sp.): 2 µg/mL (≈ 1.43 µM)
MIC Coagulase Negative Staphylococcus (GC 6257) (Staphylococcus sp.): 1 µg/mL (≈ 0.715 µM)
MIC Staphylococcus aureus (ATCC 29213) (Staphylococcus sp.): 2 µg/mL (≈ 1.43 µM)
MIC Staphylococcus aureus (GC 1131) (Staphylococcus sp.): 2 µg/mL (≈ 1.43 µM)
MIC Staphylococcus aureus (GC 3051) (Staphylococcus sp.): 2 µg/mL (≈ 1.43 µM)
MIC Staphylococcus aureus (GC 3053) (Staphylococcus sp.): 2 µg/mL (≈ 1.43 µM)
MIC Staphylococcus aureus (GC 4541) (Staphylococcus sp.): 2 µg/mL (≈ 1.43 µM)
MIC Staphylococcus aureus (GC 4542) (Staphylococcus sp.): 2 µg/mL (≈ 1.43 µM)
MIC Staphylococcus aureus (GC 4544) (Staphylococcus sp.): 2 µg/mL (≈ 1.43 µM)
MIC Staphylococcus aureus (GC 4545) (Staphylococcus sp.): 2 µg/mL (≈ 1.43 µM)
MIC Staphylococcus aureus-SMITH (GC 4543) (Staphylococcus sp.): 2 µg/mL (≈ 1.43 µM)
MIC Streptococcus agalactiae (GC 4564) (Streptococcus sp.; [5]): 0.5 µg/mL (≈ 0.357 µM)
MIC Streptococcus pneumoniae (ATCC 6301) (Streptococcus sp.; [6]): 0.25 µg/mL (≈ 0.179 µM)
MIC Streptococcus pneumoniae (GC 1894) (Streptococcus sp.; [7]): 0.12 µg/mL (≈ 0.0857 µM)
MIC Streptococcus pneumoniae (GC 4565) (Streptococcus sp.; [8]): 0.25 µg/mL (≈ 0.179 µM)
MIC Streptococcus pyogenes (GC 4563) (Streptococcus sp.; [9]): 0.5 µg/mL (≈ 0.357 µM)
MIC Streptococcus agalactiae (GC 4564) (Streptococcus sp.; [4]): 0.5 µg/mL (≈ 0.357 µM)
MIC Streptococcus pneumoniae (ATCC 6301) (Streptococcus sp.; [4]): 0.25 µg/mL (≈ 0.179 µM)
MIC Streptococcus pneumoniae (GC 1894) (Streptococcus sp.; [4]): 0.12 µg/mL (≈ 0.0857 µM)
MIC Streptococcus pneumoniae (GC 4565) (Streptococcus sp.; [4]): 0.25 µg/mL (≈ 0.179 µM)
MIC Streptococcus pyogenes (GC 4563) (Streptococcus sp.; [4]): 0.5 µg/mL (≈ 0.357 µM)
SMILES: Cc1ccc(COCC2OC(OC3C(CO)OC(Oc4ccc(CC5NC(=O)C(C(C)c6ccccc6)NC(=O)CNC(=O)C(CO)NC(=O)C(C(O)C6CNC(=N)N6C6OC(CO)C(O)C(O)C6O)NC(=O)C(C(O)C6CNC(=N)N6)NC5=O)cc4)C(O)C3O)C(O)C(O)C2O)cc1 (centres unmarked) [Example 234]
MIC Staphylococcus haemolyticus (GC 4546) (Staphylococcus sp.): 1 µg/mL (≈ 0.715 µM)

MIC Escherichia coli (ATCC 25922) (Escherichia coli): >64 µg/mL
MIC Escherichia coli (GC 4559) (Escherichia coli): >64 µg/mL
MIC Escherichia coli (GC 4560) (Escherichia coli): 1 µg/mL (≈ 0.677 µM)
MIC Enterococcus avium (GC 4558) (Enterococcus sp.): 2 µg/mL (≈ 1.35 µM)
MIC Enterococcus faecalis (ATCC 29212) (Enterococcus sp.): 4 µg/mL (≈ 2.71 µM)
MIC Enterococcus faecalis (GC 2242) (Enterococcus sp.; [1]): 4 µg/mL (≈ 2.71 µM)
MIC Enterococcus faecalis (GC 2691) (Enterococcus sp.; [2]): 2 µg/mL (≈ 1.35 µM)
MIC Enterococcus faecalis (GC 3059) (Enterococcus sp.; [3]): 2 µg/mL (≈ 1.35 µM)
MIC Enterococcus faecalis (GC 4552) (Enterococcus sp.): 4 µg/mL (≈ 2.71 µM)
MIC Enterococcus faecalis (GC 4553) (Enterococcus sp.): 4 µg/mL (≈ 2.71 µM)
MIC Enterococcus faecalis (GC 4554) (Enterococcus sp.): 4 µg/mL (≈ 2.71 µM)
MIC Enterococcus faecalis (GC 6189) (Enterococcus sp.): 2 µg/mL (≈ 1.35 µM)
MIC Enterococcus faecium (GC 2243) (Enterococcus sp.): 4 µg/mL (≈ 2.71 µM)
MIC Enterococcus faecium (GC 4556) (Enterococcus sp.): 4 µg/mL (≈ 2.71 µM)
MIC Enterococcus faecium (GC 4557) (Enterococcus sp.): 2 µg/mL (≈ 1.35 µM)
MIC Enterococcus faecalis (GC 2242) (Enterococcus sp.; [4]): 4 µg/mL (≈ 2.71 µM)
MIC Enterococcus faecalis (GC 2691) (Enterococcus sp.; [4]): 2 µg/mL (≈ 1.35 µM)
MIC Enterococcus faecalis (GC 3059) (Enterococcus sp.; [4]): 2 µg/mL (≈ 1.35 µM)
MIC Coagulase Negative Staphylococcus (GC 4547) (Staphylococcus sp.): 2 µg/mL (≈ 1.35 µM)
MIC Coagulase Negative Staphylococcus (GC 4548) (Staphylococcus sp.): 0.5 µg/mL (≈ 0.338 µM)
MIC Coagulase Negative Staphylococcus (GC 4549) (Staphylococcus sp.): 0.5 µg/mL (≈ 0.338 µM)
MIC Coagulase Negative Staphylococcus (GC 4551) (Staphylococcus sp.): 2 µg/mL (≈ 1.35 µM)
MIC Coagulase Negative Staphylococcus (GC 6257) (Staphylococcus sp.): 1 µg/mL (≈ 0.677 µM)
MIC Staphylococcus aureus (ATCC 29213) (Staphylococcus sp.): 2 µg/mL (≈ 1.35 µM)
MIC Staphylococcus aureus (GC 1131) (Staphylococcus sp.): 2 µg/mL (≈ 1.35 µM)
MIC Staphylococcus aureus (GC 3051) (Staphylococcus sp.): 2 µg/mL (≈ 1.35 µM)
MIC Staphylococcus aureus (GC 3053) (Staphylococcus sp.): 2 µg/mL (≈ 1.35 µM)
MIC Staphylococcus aureus (GC 4541) (Staphylococcus sp.): 2 µg/mL (≈ 1.35 µM)
MIC Staphylococcus aureus (GC 4542) (Staphylococcus sp.): 4 µg/mL (≈ 2.71 µM)
MIC Staphylococcus aureus (GC 4544) (Staphylococcus sp.): 2 µg/mL (≈ 1.35 µM)
MIC Staphylococcus aureus (GC 4545) (Staphylococcus sp.): 2 µg/mL (≈ 1.35 µM)
MIC Staphylococcus aureus-SMITH (GC 4543) (Staphylococcus sp.): 2 µg/mL (≈ 1.35 µM)
MIC Streptococcus agalactiae (GC 4564) (Streptococcus sp.; [5]): 0.12 µg/mL (≈ 0.0812 µM)
MIC Streptococcus pneumoniae (ATCC 6301) (Streptococcus sp.; [6]): <0.06 µg/mL
MIC Streptococcus pneumoniae (GC 1894) (Streptococcus sp.; [7]): <0.06 µg/mL
MIC Streptococcus pneumoniae (GC 4565) (Streptococcus sp.; [8]): <0.06 µg/mL
MIC Streptococcus pyogenes (GC 4563) (Streptococcus sp.; [9]): <0.06 µg/mL
MIC Streptococcus agalactiae (GC 4564) (Streptococcus sp.; [4]): 0.12 µg/mL (≈ 0.0812 µM)
MIC Streptococcus pneumoniae (ATCC 6301) (Streptococcus sp.; [4]): <0.06 µg/mL
MIC Streptococcus pneumoniae (GC 1894) (Streptococcus sp.; [4]): <0.06 µg/mL
MIC Streptococcus pneumoniae (GC 4565) (Streptococcus sp.; [4]): <0.06 µg/mL
MIC Streptococcus pyogenes (GC 4563) (Streptococcus sp.; [4]): <0.06 µg/mL
SMILES: CC(c1ccccc1)C1NC(=O)CNC(=O)C(CO)NC(=O)C(C(O)C2CNC(=N)N2C2OC(CO)C(O)C(O)C2O)NC(=O)C(C(O)C2CNC(=N)N2)NC(=O)C(Cc2ccc(OC3OC(CO)C(OC4OC(COCc5ccc(Oc6ccccc6)cc5)C(O)C(O)C4O)C(O)C3O)cc2)NC1=O (stereo not drawn) [Example 236, Cyclo[glycyl-β-methylphenylalanyl-O-[4-O-[6-O-(4-phenoxybenzyl)hexopyranosyl]hexopyranosyl]tyrosyl-3-(2-iminoimidazolidin-4-yl)seryl-3-(3-hexopyranosyl-2-iminoimidazolidin-4-yl)serylseryl]]
MIC Staphylococcus haemolyticus (GC 4546) (Staphylococcus sp.): 2 µg/mL (≈ 1.35 µM)
